Reference: US10294496B2, “Methods for biosynthesizing 1,3 butadiene” (INVISTA North America S.á r.l., priority 2013, dated 2019)

Molecular target: T1, linalool dehydratase (EC 4.2.1.127) (Castellaniella defragrans, UniProt E1XUJ2)
T1 construct: His tag; made in house; host or cells: E. coli BL21 (pARZ4 vector)
Assay: Enzyme activity of linalool dehydratase using 3-buten-2-ol as substrate (headspace GC-MS for butadiene)
Format: biochemical
Details: 11 mM 3-buten-2-ol, 25° C., purified his-tagged enzyme, butadiene in headspace by GC-MS
Source text: The his-tagged linalool dehydratase (EC 4.2.1.127) from Castellaniella defragrans was cloned into a pARZ4 vector and transformed into E. coli BL21. The resulting strain was cultivated and induced using […] (isopropylthio-β-galactoside) in a shake flask culture containing Luria Broth media and kanamycin selection pressure.
The cells from each of the induced shake flask cultures were harvested and pelleted by centrifugation. The cell pellet was resuspended and the cells were lysed. The cell debris was separated from the supernatant via centrifugation and filtered using a 0.2 μm filter. The enzyme was purified from the filtered supernatant using Ni-affinity chromatography and concentrated and buffer exchanged using a Vivaspin 15R Centrifugal Concentrator and Hi-trap Desalting column into 80 mM Tris buffer (pH=9).
Non-native enzyme activity assays were undertaken in a buffer containing 11 mM of 3-buten-2-ol at 25° C. The activity assays were undertaken in 2 mL septum-sealed vials, thereby allowing butadiene accumulation in the headspace. The reaction was initiated by adding 1 mL of purified enzyme to the assay buffer containing the substrate.
The headspace was sampled for butadiene analysis by GC-MS (gas chromatography-mass spectrometry). […] Also, the ion peak areas were above the limit of quantitation for the GC-MS.

T1 sequence (E1XUJ2 27-397): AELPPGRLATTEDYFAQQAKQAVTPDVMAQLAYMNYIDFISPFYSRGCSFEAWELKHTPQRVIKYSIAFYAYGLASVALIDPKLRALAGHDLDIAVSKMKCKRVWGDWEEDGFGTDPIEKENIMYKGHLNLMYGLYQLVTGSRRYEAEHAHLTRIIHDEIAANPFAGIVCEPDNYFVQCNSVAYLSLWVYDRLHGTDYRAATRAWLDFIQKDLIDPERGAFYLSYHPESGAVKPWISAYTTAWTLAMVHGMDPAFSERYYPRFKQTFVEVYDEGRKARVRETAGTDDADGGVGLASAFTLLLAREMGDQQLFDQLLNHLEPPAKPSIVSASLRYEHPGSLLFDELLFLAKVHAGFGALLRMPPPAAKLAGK

## C=CC(C)O (stereo not shown) [3-buten-2-ol]
  non-native enzyme activity: substrate acceptance, synthesis of butadiene: accepts 3-buten-2-ol as a substrate
